Results as given in patent US20210269434A1, “TRICYCLIC COMPOUNDS AS INHIBITORS OF KRAS” (Incyte Corporation, priority 2020, published 2021).

Experiments:
[1] = target: KRAS G12C (Homo sapiens, UniProt P01116, G12C); assay: GDP-GTP exchange assay (KRAS_G12C exchange); assay type: biochemical; conditions: bodipy-GDP loaded KRAS G12C 2.5 nM, SOS1 150 nM, GppNHp; 2 hours pre-incubation, 2 hours reaction; read-out: G12C_exchange
Procedure, shortened: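 Fluorescence exchange of bodipy-GDP for GppNHp, SOS1-driven, read at 485/520 nm; IC50 from four-parameter variable-slope fit. Both mutants used 2.5 nM final labelled protein and a 2 h compound pre-incubation. G12C reaction had 500 uM GppNHp and 150 nM SOS1 for 2 h; G12D ran 4 h.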

[2] = tested on: MIA PaCa-2 (KRAS G12C) cells; assay: Cellular pERK HTRF assay (KRAS_G12C pERK); assay type: cell-based, human; conditions: Homo sapiens, MIA PaCa-2, 4 hours incubation, read-out: G12C_pERK
Procedure, shortened: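 Phospho-ERK1/2 HTRF readout (665 and 620 nm) in lysed MIA PaCa-2 cells, antibodies incubated overnight at room temperature. Cells seeded the day before and treated with G12C compounds for 4 h at 37 °C; IC50 fitted to percent inhibition against log inhibitor concentration.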

Sequence of KRAS G12C (P01116 1-188 isoform P01116-2 G12C): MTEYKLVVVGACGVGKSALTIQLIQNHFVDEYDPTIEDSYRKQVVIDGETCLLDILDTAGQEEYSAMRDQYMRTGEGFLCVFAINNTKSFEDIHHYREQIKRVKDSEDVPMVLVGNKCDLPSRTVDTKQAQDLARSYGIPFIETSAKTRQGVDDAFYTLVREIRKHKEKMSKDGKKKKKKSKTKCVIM

SMILES	IC50 [1] [µM]	IC50 [2] [µM]
C=CC(=O)N1CC[C@H](n2nnc3c(OC[C@@H]4CCCN4C)nc4c(F)c(-c5ccc(F)cc5)c(Cl)cc4c32)C[C@H]1CC#N [Example 131, 2-((2S,4S)-1-acryloyl-4-(8-chloro-6-fluoro-7-(4-fluorophenyl)-4-(((S)-1-methylpyrrolidin-2-yl)methoxy)-1H-[1,2,3]triazolo[4,5-c]quinolin-1-yl)piperidin-2-yl)acetonitrile]	≤ 0.1	≤ 0.1
Cc1cc2c(nc(O[C@@H](C)CN(C)C)c3nnn([C@H]4CCN(C(=O)/C=C/CF)[C@H](CC#N)C4)c32)c(F)c1-c1ccc(F)cc1 [Example 134, 2-((2S,4S)-4-(4-(((S)-1-(dimethylamino)propan-2-yl)oxy)-6-fluoro-7-(4-fluorophenyl)-8-methyl-1H-[1,2,3]triazolo[4,5-c]quinolin-1-yl)-1-((E)-4-fluorobut-2-enoyl)piperidin-2-yl)acetonitrile]	≤ 0.1	≤ 0.1
C=CC(=O)N1CC[C@H](n2nnc3c(OC[C@@H]4CCCN4C)nc4c(F)c(-c5ccc(F)cc5)c(C)cc4c32)C[C@H]1CC#N [Example 135, 2-((2S,4S)-1-acryloyl-4-(6-fluoro-7-(4-fluorophenyl)-8-methyl-4-(((S)-1-methylpyrrolidin-2-yl)methoxy)-1H-[1,2,3]triazolo[4,5-c]quinolin-1-yl)piperidin-2-yl)acetonitrile]	≤ 0.1	≤ 0.1
Cc1cc2c(nc(OC[C@@H]3CCCN3C)c3nnn([C@H]4CCN(C(=O)/C=C/CF)[C@H](CC#N)C4)c32)c(F)c1-c1ccc(F)cc1 [Example 136, 2-((2S,4S)-4-(6-fluoro-7-(4-fluorophenyl)-8-methyl-4-(((S)-1-methylpyrrolidin-2-yl)methoxy)-1H-[1,2,3]triazolo[4,5-c]quinolin-1-yl)-1-((E)-4-fluorobut-2-enoyl)piperidin-2-yl)acetonitrile]	≤ 0.1	≤ 0.1
CC#CC(=O)N1CC[C@H](n2nnc3c(OC[C@@H]4CCCN4C)nc4c(F)c(-c5cccc(C)c5C)c(C)cc4c32)C[C@H]1CC#N [Example 139, 2-((2S,4S)-1-(but-2-ynoyl)-4-(7-(2,3-dimethylphenyl)-6-fluoro-8-methyl-4-(((S)-1-methylpyrrolidin-2-yl)methoxy)-1H-[1,2,3]triazolo[4,5-c]quinolin-1-yl)piperidin-2-yl)acetonitrile]	≤ 0.1	≤ 0.1
COC/C=C/C(=O)N1CC[C@H](n2nnc3c(OC[C@@H]4CCCN4C)nc4c(F)c(-c5cccc(C)c5C)c(C)cc4c32)C[C@H]1CC#N [Example 140, 2-((2S,4S)-4-(7-(2,3-dimethylphenyl)-6-fluoro-8-methyl-4-(((S)-1-methylpyrrolidin-2-yl)methoxy)-1H-[1,2,3]triazolo[4,5-c]quinolin-1-yl)-1-((E)-4-methoxybut-2-enoyl)piperidin-2-yl)acetonitrile]	≤ 0.1	≤ 0.1
C=CC(=O)N1CC[C@H](n2nnc3c(O[C@@H](C)CN(C)C)nc4c(F)c(-c5cccc(C)c5C)c(C)cc4c32)C[C@H]1CC#N [Example 142, 2-((2S,4S)-1-acryloyl-4-(4-(((S)-1-(dimethylamino)propan-2-yl)oxy)-7-(2,3-dimethylphenyl)-6-fluoro-8-methyl-1H-[1,2,3]triazolo[4,5-c]quinolin-1-yl)piperidin-2-yl)acetonitrile]	≤ 0.1	≤ 0.1
Cc1cccc(-c2c(C)cc3c(nc(O[C@@H](C)CN(C)C)c4nnn([C@H]5CCN(C(=O)/C=C/CF)[C@H](CC#N)C5)c43)c2F)c1C [Example 143, 2-((2S,4S)-4-(4-(((S)-1-(dimethylamino)propan-2-yl)oxy)-7-(2,3-dimethylphenyl)-6-fluoro-8-methyl-1H-[1,2,3]triazolo[4,5-c]quinolin-1-yl)-1-((E)-4-fluorobut-2-enoyl)piperidin-2-yl)acetonitrile]	≤ 0.1	≤ 0.1
Cc1cccc(-c2c(C)cc3c(nc(O[C@@H](C)CN(C)C)c4nnn([C@H]5CCN(C(=O)/C=C/C(F)F)[C@H](CC#N)C5)c43)c2F)c1C [Example 144, 2-((2S,4S)-1-((E)-4,4-difluorobut-2-enoyl)-4-(4-(((S)-1-(dimethylamino)-propan-2-yl)oxy)-7-(2,3-dimethylphenyl)-6-fluoro-8-methyl-1H-[1,2,3]triazolo[4,5-c]quinolin-1-yl)piperidin-2-yl)acetonitrile]	≤ 0.1	≤ 0.1

Further lines, results first:

IC50 [1] [µM]	IC50 [2] [µM]	SMILES
≤ 0.1	≤ 0.1	CC#CC(=O)N1CC[C@H](n2nnc3c(O[C@@H](C)CN(C)C)nc4c(F)c(-c5ccc(F)cc5)c(Cl)cc4c32)C[C@H]1CC#N [Example 129, 2-((2S,4S)-1-(but-2-ynoyl)-4-(8-chloro-4-(((S)-1-(dimethylamino)propan-2-yl)oxy)-6-fluoro-7-(4-fluorophenyl)-1H-[1,2,3]triazolo[4,5-c]quinolin-1-yl)piperidin-2-yl)acetonitrile]
≤ 0.1	≤ 0.1	C[C@@H](CN(C)C)Oc1nc2c(F)c(-c3ccc(F)cc3)c(Cl)cc2c2c1nnn2[C@H]1CCN(C(=O)/C=C/CF)[C@H](CC#N)C1 [Example 130, 2-((2S,4S)-4-(8-chloro-4-(((S)-1-(dimethylamino)propan-2-yl)oxy)-6-fluoro-7-(4-fluorophenyl)-1H-[1,2,3]triazolo[4,5-c]quinolin-1-yl)-1-((E)-4-fluorobut-2-enoyl)piperidin-2-yl)acetonitrile]
≤ 0.1	≤ 0.1	C=CC(=O)N1CC[C@H](n2nnc3c(O[C@@H](C)CN(C)C)nc4c(F)c(-c5ccc(F)cc5)c(C)cc4c32)C[C@H]1CC#N [Example 132, 2-((2S,4S)-1-acryloyl-4-(4-(((S)-1-(dimethylamino)propan-2-yl)oxy)-6-fluoro-7-(4-fluorophenyl)-8-methyl-1H-[1,2,3]triazolo[4,5-c]quinolin-1-yl)piperidin-2-yl)acetonitrile]
≤ 0.1	≤ 0.1	CC#CC(=O)N1CC[C@H](n2nnc3c(O[C@@H](C)CN(C)C)nc4c(F)c(-c5ccc(F)cc5)c(C)cc4c32)C[C@H]1CC#N [Example 133, 2-((2S,4S)-1-(but-2-ynoyl)-4-(4-(((S)-1-(dimethylamino)propan-2-yl)oxy)-6-fluoro-7-(4-fluorophenyl)-8-methyl-1H-[1,2,3]triazolo[4,5-c]quinolin-1-yl)piperidin-2-yl)acetonitrile]
≤ 0.1	≤ 0.1	C=CC(=O)N1CC[C@H](n2nnc3c(OC[C@@H]4CCCN4C)nc4c(F)c(-c5cccc(C)c5C)c(C)cc4c32)C[C@H]1CC#N [Example 137, 2-((2S,4S)-1-acryloyl-4-(7-(2,3-dimethylphenyl)-6-fluoro-8-methyl-4-(((S)-1-methylpyrrolidin-2-yl)methoxy)-1H-[1,2,3]triazolo[4,5-c]quinolin-1-yl)piperidin-2-yl)acetonitrile]
≤ 0.1	≤ 0.1	Cc1cccc(-c2c(C)cc3c(nc(OC[C@@H]4CCCN4C)c4nnn([C@H]5CCN(C(=O)/C=C/CF)[C@H](CC#N)C5)c43)c2F)c1C [Example 138, 2-((2S,4S)-4-(7-(2,3-dimethylphenyl)-6-fluoro-8-methyl-4-(((S)-1-methylpyrrolidin-2-yl)methoxy)-1H-[1,2,3]triazolo[4,5-c]quinolin-1-yl)-1-((E)-4-fluorobut-2-enoyl)piperidin-2-yl)acetonitrile]
≤ 0.1	≤ 0.1	Cc1cccc(-c2c(C)cc3c(nc(OC[C@@H]4CCCN4C)c4nnn([C@H]5CCN(C(=O)/C=C/C(F)F)[C@H](CC#N)C5)c43)c2F)c1C [Example 141, 2-((2S,4S)-1-((E)-4,4-difluorobut-2-enoyl)-4-(7-(2,3-dimethylphenyl)-6-fluoro-8-methyl-4-(((S)-1-methylpyrrolidin-2-yl)methoxy)-1H-[1,2,3]triazolo[4,5-c]quinolin-1-yl)piperidin-2-yl)acetonitrile]
≤ 0.1	≤ 0.1	COC/C=C/C(=O)N1CC[C@H](n2nnc3c(O[C@@H](C)CN(C)C)nc4c(F)c(-c5cccc(C)c5C)c(C)cc4c32)C[C@H]1CC#N [Example 145, 2-((2S,4S)-4-(4-(((S)-1-(dimethylamino)propan-2-yl)oxy)-7-(2,3-dimethylphenyl)-6-fluoro-8-methyl-1H-[1,2,3]triazolo[4,5-c]quinolin-1-yl)-1-((E)-4-methoxybut-2-enoyl)piperidin-2-yl)acetonitrile]
≤ 0.1	≤ 0.1	CC#CC(=O)N1CC[C@H](n2nnc3c(O[C@@H](C)CN(C)C)nc4c(F)c(-c5cccc(C)c5C)c(C)cc4c32)C[C@H]1CC#N [Example 146, 2-((2S,4S)-1-(but-2-ynoyl)-4-(4-(((S)-1-(dimethylamino)propan-2-yl)oxy)-7-(2,3-dimethylphenyl)-6-fluoro-8-methyl-1H-[1,2,3]triazolo[4,5-c]quinolin-1-yl)piperidin-2-yl)acetonitrile]
≤ 0.1	≤ 0.1	C=CC(=O)N1CC[C@H](n2nnc3c(N4CC(N(C)C)C4)nc4c(F)c(-c5cccc(C)c5C)c(C)cc4c32)C[C@H]1CC#N [Example 147, 2-((2S,4S)-1-acryloyl-4-(4-(3-(dimethylamino)azetidin-1-yl)-7-(2,3-dimethylphenyl)-6-fluoro-8-methyl-1H-[1,2,3]triazolo[4,5-c]quinolin-1-yl)piperidin-2-yl)acetonitrile]
